In article PMC5937873, “Improving the biopharmaceutical attributes of mangiferin using vitamin E-TPGS co-loaded self-assembled phosholipidic nano-mixed micellar systems” (Drug Delivery and Translational Research, 2018):
≈ marks a conversion by molar mass, not a printed value. Like-named read-outs stand apart in the source and are kept apart here.

Tests used:
[1] = system: whole blood; test: Hematological studies (whole blood count, RBC morphology); details: SD female rats, 30 mg/kg Mgf oral gavage, three times per week for 4 weeks
[2] = Equilibrium solubility studies in emulgents and cosolvents; type: physicochemical; details: 37 ± 1 °C
Description: Solubility studies for Mgf were carried out for 72 h at 37 ± 1 °C in a water bath by adding an excess amount of drug in various water-soluble emulgents, viz. Acconon CC-6, Cremophor RH40, Cremophor EL, Vitamin E TPGS, Labrafil […], Labrasol, Tween 80 and Tween 40. Cosolvents employed included Transcutol HP, PEG 200, and propylene glycol. Aliquots of the filtrate were suitably diluted with methanol and analyzed using the HPTLC method previously reported by the authors at a λmax of 262 nm.

[3] = In vivo pharmacokinetic studies; details: rat, oral, Mgf equivalent to 30 mg/kg
Description: In vivo pharmacokinetic studies were conducted by sparse sampling designed experiment. The formulations were administered through oral gavage on two groups of rats (n = 60). Within each group, five subgroups were designated (5 × 6 = 30 animals were employed in one group) and from one animal maximum two blood samples were withdrawn during the entire study alternating between left and right eyes. Group I was administered plain Mgf solution and Group II was given Mgf-SPNMS containing Mgf equivalent to 30mg/Kg. The animals were anesthetized employing isoflurane, and the blood (200 μL) was withdrawn from the retro-orbital plexus of rats at 0.5, 1, 2, 3, 6, 12, 18, 24, and 36 h, in heparin-coated micro-centrifuge tubes.
Further, plasma was harvested by centrifugation at 10,000 rpm (559 g) for 5 min and analyzed for Mgf using the previously reported and validated HPTLC method. The data were analyzed by non-compartmental and compartmental pharmacokinetic modeling approaches using the WinNonlin software, version 5.0 ([…]). Statistical tests like one-way/two-way ANOVA followed by post hoc multiple comparison tests, and Student’s independent t test has been applied wherever applicable.

[4] = system: vital organs; test: Histopathology of vital organs (in vivo toxicity); details: SD female rats, 30 mg/kg Mgf oral gavage, three times per week for 4 weeks
[5] = Biopharmaceutics classification (BCS); details: by virtue of low aqueous solubility and lipophilicity
[6] = biological target: T1, BCRP transporters (Homo sapiens, UniProt Q9UNQ0); test: P-gp efflux assay with DiOC2 dye (multi-drug resistance dye efflux kit); type: cell-based; details: MCF-7 and MDA-MB-231 cells, 37 °C
T1 construct: endogenous in cells; host or cells: MCF-7 and MDA-MB-231 cells
T1 sequence (Q9UNQ0 1-655): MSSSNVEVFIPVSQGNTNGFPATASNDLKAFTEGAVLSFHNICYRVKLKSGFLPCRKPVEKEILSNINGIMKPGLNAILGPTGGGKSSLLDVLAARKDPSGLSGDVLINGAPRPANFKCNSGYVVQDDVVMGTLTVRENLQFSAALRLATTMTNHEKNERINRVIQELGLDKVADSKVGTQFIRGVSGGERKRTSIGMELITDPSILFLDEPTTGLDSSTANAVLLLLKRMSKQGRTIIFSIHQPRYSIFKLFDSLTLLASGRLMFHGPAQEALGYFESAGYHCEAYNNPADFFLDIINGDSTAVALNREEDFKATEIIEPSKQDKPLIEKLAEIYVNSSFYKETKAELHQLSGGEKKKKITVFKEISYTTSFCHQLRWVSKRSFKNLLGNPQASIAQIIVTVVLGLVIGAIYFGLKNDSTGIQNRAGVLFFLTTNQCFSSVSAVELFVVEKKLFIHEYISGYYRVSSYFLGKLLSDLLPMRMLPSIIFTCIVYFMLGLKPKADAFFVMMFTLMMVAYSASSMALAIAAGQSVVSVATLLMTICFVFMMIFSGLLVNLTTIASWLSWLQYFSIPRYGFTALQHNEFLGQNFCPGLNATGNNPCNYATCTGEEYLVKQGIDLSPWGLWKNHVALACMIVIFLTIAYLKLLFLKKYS
Description: (§1) Overexpression of P-gp in MCF-7 and MDA-MB-231 cells is well-documented in literature. […] For evaluating the P-gp efflux, the multi-drug resistance dye efflux assay kit (Chemicon International, USA) was employed in which the MCF-7 and MDA-MB-231 cells (2.5 × 10^5) were treated with Rh-123 and DiOC2 dyes, with or without vinblastine. To assess the inhibitory activity of SPNMS on MDR1 transporters, these were incubated with Rh-123 alone, Rh-123 with SPNMS, and Rh-123 with vinblastine at 37 °C, along with Rh-123 at 4 °C. Likewise, to estimate the potential of the developed SPNMS formulation for blocking the activity of BCRP transporters, DiOC2 dye was employed. On similar heels, MCF-7 and MDA-MB-231 cells (2.5 × 10^5) were incubated with DiOC2 alone, DiOC2 with SPNMS, and DiOC2 with vinblastine at 37 °C, along with DiOC2 at 4 °C. The fluorescence intensity was measured in a TECAN fluorescence microplate reader at an excitation wavelength of 485 nm and an emission wavelength of 530 nm.

[7] = biological target: T2, MDR1 transporters (Homo sapiens, UniProt P08183); test: P-gp efflux assay with Rh-123 dye (multi-drug resistance dye efflux kit); type: cell-based; details: MCF-7 and MDA-MB-231 cells, 37 °C
T2 construct: Overexpression of P-gp in MCF-7 and MDA-MB-231 cells is well-documented in literature; endogenous in cells; host or cells: MCF-7 and MDA-MB-231 cells
Description: as §1

[8] = excised rat small intestine, 2 h

T2 sequence (P08183 whole entry): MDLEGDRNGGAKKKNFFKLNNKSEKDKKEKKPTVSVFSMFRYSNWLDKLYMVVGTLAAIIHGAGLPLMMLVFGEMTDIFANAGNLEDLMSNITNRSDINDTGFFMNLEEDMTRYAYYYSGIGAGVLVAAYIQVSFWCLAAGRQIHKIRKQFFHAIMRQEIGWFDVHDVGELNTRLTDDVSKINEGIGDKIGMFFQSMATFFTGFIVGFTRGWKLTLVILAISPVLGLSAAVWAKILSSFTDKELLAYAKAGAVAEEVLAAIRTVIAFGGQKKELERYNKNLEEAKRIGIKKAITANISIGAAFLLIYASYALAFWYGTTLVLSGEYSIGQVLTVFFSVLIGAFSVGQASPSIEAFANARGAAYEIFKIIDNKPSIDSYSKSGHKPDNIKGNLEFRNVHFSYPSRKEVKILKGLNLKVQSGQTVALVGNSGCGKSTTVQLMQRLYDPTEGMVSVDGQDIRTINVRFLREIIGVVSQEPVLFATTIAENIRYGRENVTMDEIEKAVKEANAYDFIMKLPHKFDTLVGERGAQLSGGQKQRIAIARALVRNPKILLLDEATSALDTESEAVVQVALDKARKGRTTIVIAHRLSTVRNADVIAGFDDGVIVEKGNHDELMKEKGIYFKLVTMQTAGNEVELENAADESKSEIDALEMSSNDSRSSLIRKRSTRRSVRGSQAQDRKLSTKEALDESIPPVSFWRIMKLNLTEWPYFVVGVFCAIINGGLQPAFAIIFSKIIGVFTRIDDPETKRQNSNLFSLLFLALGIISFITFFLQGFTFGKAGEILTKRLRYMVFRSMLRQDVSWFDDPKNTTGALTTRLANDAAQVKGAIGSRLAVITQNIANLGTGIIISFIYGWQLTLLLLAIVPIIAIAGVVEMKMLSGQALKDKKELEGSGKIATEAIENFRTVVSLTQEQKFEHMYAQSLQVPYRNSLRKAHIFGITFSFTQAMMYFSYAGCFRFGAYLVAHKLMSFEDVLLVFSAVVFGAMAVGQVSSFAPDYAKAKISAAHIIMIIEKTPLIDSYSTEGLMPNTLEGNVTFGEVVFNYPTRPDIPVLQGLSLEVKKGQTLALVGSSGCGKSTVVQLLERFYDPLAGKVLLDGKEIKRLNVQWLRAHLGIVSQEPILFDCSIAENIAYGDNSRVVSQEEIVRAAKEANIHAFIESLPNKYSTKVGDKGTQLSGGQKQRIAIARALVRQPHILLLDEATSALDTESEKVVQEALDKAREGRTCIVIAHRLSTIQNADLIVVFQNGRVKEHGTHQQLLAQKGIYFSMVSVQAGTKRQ

For `O=c1c2cc(O)c(O)cc2oc2cc(O)c([C@@H]3O[C@H](CO)[C@@H](O)[C@H](O)[C@H]3O)c(O)c12` [Mgf, mangiferin], the HCT [1] was 43.9%, the HGB [1] was 14.54 g/dL and the PLT count [1] was “AG* 589 × 10^3/μL”. It also gave an RBC count [1] of 8.21e+06 µL⁻¹, a WBC count [1] of 16400 µL⁻¹ and a solubility thermodynamic at 72 h ([2]; PEG 200 (cosolvent), highest among cosolvents, read-out: equilibrium solubility in PEG 200) of 10.2 mg/mL (≈ 24.2 mM). For the same compound, the solubility thermodynamic at 72 h ([2]; vitamin E TPGS (water-soluble emulgent), maximum among surfactants, read-out: equilibrium solubility in vitamin E TPGS) was 17.6 mg/mL (≈ 41.8 mM), the Cmax ([3]; plasma) was 297 ± 56.4 ng/mL and the MRT ([3]; plasma) was 8.16 ± 1.73 h. It also gave a Tmax ([3]; plasma) of 3.08 ± 0.18 h, a Cl [3] of 2543.44 ± 453.42 mL/h and a Ka [3] of 0.32 ± 0.09 h⁻¹. For the same compound, the “histopathological change(s) in vital organs” value [4] was “no histopathological change(s)” and the BCS class [5] was “BCS class IV”.

With `CC[C@]1(O)C[C@@H]2CN(CCc3c([nH]c4ccccc34)[C@@](C(=O)OC)(c3cc4c(cc3OC)N(C)[C@H]3[C@@](O)(C(=O)OC)[C@H](OC(C)=O)[C@]5(CC)C=CCN6CC[C@]43[C@@H]65)C2)C1` [vinblastine] the “inhibition of DiOC2 efflux (fluorescence intensity)” value [6] was “higher fluorescence intensity without any efflux” and the “inhibition of Rh-123 efflux (fluorescence intensity)” value [7] was “higher fluorescence intensity without any efflux”.

In the case of `COC(=O)c1ccccc1-c1c2ccc(=N)cc-2oc2cc(N)ccc12` [Rh-123, Rhodamine 123], the “intestinal permeation (CLSM)” value [8] is reported as “does not permeate through the intestine”.
